Assay results as given in patent US9290528B1, “Light-activated compounds” (University of Kentucky Research Foundation, priority 2013, dated 2016).
Where “and” joins values, the source holds several entries; their conditions need not be identical. Equal values may be shown once. Read-outs that look alike come from different tables or passages of the source.

Columns and labels:
[1] = tested on: A549 lung cancer cells; experiment: Cell survival assay, A549 monolayer; assay type: cell-based; details: for Phototoxicity Index, PI A549: ratio of dark and light IC50
Protocol: (§1) The HL60 promyelocytic leukemia cell line was obtained from ATCC and cultured in IMDM media (Invitrogen; Carlsbad, Calif.) supplemented with 10% serum supreme (Lonza; Basel, Switzerland) and penicillin/streptomycin at 37° C. with 5% CO2. The A549 cell line was donated and cultured in DMEM supplemented with glutamax, 10% serum supreme, and penicillin/streptomycin at 37° C. with 5% CO2. Cells were plated in Optimem (Life Technologies; Carlsbad, Calif.) supplemented with 1% serum supreme and penicillin/streptomycin at 30,000 cells per well in Costar 96 well flat bottom clear tissue culture treated plates for HL60 and 1500 cells/well for A549. […] The cells were then incubated for 72 hours followed by the addition of Cell Titer Glo (Promega; Madison, Wis.) to determine viability. Dark controls were run in parallel. The resulting luminescence was measured using the SpectraFluor Plus Plate Reader (Tecan). Data were fit to an equation for a sigmoidal dose response using the equation below, where yi and yf are the initial and final signal intensities.
(§2) Cell cytotoxicity studies were performed in HL60 leukemia cells and A549 lung cancer cells (see FIG. 7 and Table 3). Cells were incubated with compounds for 12 hours in the dark before irradiated with >450 nm light (410 W) for 3 minutes. Dark controls were run in parallel. Cell survival was quantified 72 hours later through the use of an ATP luciferase assay, and confirmed by Trypan Blue staining and manual counting.

[2] = tested on: A549 tumor spheroids; experiment: A549 tumor spheroid cytotoxicity; assay type: cell-based; details: for MCR Index: ratio of spheroid and monolayer culture IC50
Protocol: A549 cells were seeded at 2,500 cells/well in 1.5% agarose coated 96-well plates. After 7 days the spheroids were dosed with compounds and incubated for 12 hrs. […] Cellular viability was determined 72 hours after light activation for the irradiated samples and at the same time point for the dark samples by measuring ATP concentration with CellTiter Glo (Promega). Data were fit to an equation for sigmoidal dose response shown above using the Prism software package.
3D tumor spheroids were used to test the compounds. Spheroids provide a system that approximates the complexity of in vivo tumors. These spheroids mimic the pathophysiology of tumors, including hypoxic/necrotic regions, changes in cell shape, high proportions of quiescent cells, alterations in gene expression profiles, and diminished permeability to drugs. […] To characterize the light-activated ruthenium compounds under more challenging and biologically relevant conditions, efficacy was assessed in a 3D tumor model by forming tumor spheroids with A549 cells.
Spheroids of about 600 μm in diameter were dosed with compounds and then either kept in the dark or irradiated with >450 nm light for 3 minutes.

[3] = Light and dark cytotoxicity of exemplary compounds (Table 6); assay type: cell-based; details: for IC50: cell line not stated; for Phototoxicity Index: dark IC50/light IC50
From the text: This Example describes additional specific embodiments the presently-disclosed subject matter. […] The methods for making and characterizing the compounds are based on the methodologies described in the previous examples.

[4] = tested on: HL60 leukemia cells and A549 lung cancer cells; experiment: Cell cytotoxicity studies, summary over HL60 and A549; assay type: cell-based; details: for activity light versus dark: >450 nm light 3 minutes vs dark
Protocol: as §1, §2

[5] = tested on: pUC19 plasmid; experiment: Plasmid-compound gel analysis (Example 2); details: visible light 200 W, 1 hour
[6] = Interaction of prodrug compounds with GSH by UV/Vis spectroscopy; assay type: physicochemical; details: period of days
From the text: (§3) The photoactivated DNA crosslinking Ru(bpy)2 species retained its ability to damage DNA, even at higher GSH concentrations.

[7] = tested on: HL60 promyelocytic leukemia cell line; experiment: Cell survival assay, HL60; assay type: cell-based; details: for Phototoxicity Index, PI HL60: ratio of dark and light IC50
Protocol: as §1, §2

[8] = tested on: HL60 cells; experiment: Western blot of PARP and caspase 3 cleavage; assay type: cell-based, human; details: protected from light and irradiated
Protocol: Given the different cellular localization properties and time profiles for cell death induced by 9 and 10, the mechanism of cell death was investigated. Indicators of apoptotic cell death (activation of PARP and caspase 3 through proteolysis) were determined in HL60 cells treated with either 9 or 10 (FIGS. 15A and 15B).
The generation of an alternate 55 kDa PARP fragment was determined by immunoblot as a marker for necrosis with 10% (v/v) ethanol used as a control that induces necrosis.

[9] = tested on: HL-60 human leukemia cell line; experiment: Cytotoxicity in HL-60 cells, dark and irradiated (Example 1); assay type: cell-based
Protocol: Cytotoxicity studies were performed to determine if the light-induced DNA damage translated to biological activity in cancer cells. […] The compounds were incubated with the cells for 12 hours prior to irradiation with blue (>400 nm), red (>600 nm), and near-IR (>650 nm) light (Table 2). […] Increasing the light dose increased the observed potency. […] A phototoxicity index (PI) value (the toxicity in the dark vs. the light) of 43 was found with blue light for compound 1.

[10] = tested on: HL60 cells; experiment: Genomic DNA laddering by gel electrophoresis; assay type: cell-based, human; details: dark / not irradiated
From the text: To further analyze the mechanisms of cell death induced by 9 and 10, the degradation pattern of genomic DNA was investigated. DNA laddering was observed as a result of DNA fragmentation stemming from the execution phase of apoptosis. In contrast, necrotic cell death lacked this characteristic laddering effect, allowing differentiation between these two mechanisms. […] This laddering was absent in the cells treated with ethanol and compounds 9 and 10 in the dark. […] In contrast, given the cytotoxicity of 9 in the dark and the presence of the 55 kDa PARP fragment, it appears that necrotic cell death is one pathway for […]. For compound 10 the absence of DNA laddering may be a result of the lack of cytotoxicity of the negatively charged compound.

[11] = tested on: pUC19 plasmid; experiment: Glutathione assay: pUC19 crosslinking with increasing GSH; assay type: biochemical; details: 30 μM compound, 0.01-40 mM GSH; 4 light-activated
Protocol: The concentrations of GSH were 0.01, 0.1, 1, 10, 40 mM, giving a molar ratio between the compounds and glutathione of a) 1:0.3, b) 1:3.3, c) 1:33, d) 1:333, e) 1:1333. […] Control reactions with pUC19 in the presence and absence of GSH were carried out for 12 hrs in the dark with 25 μg/ml plasmid and 40 mM GSH in 10 mM phosphate buffer, pH 7.5. The plasmid was resolved on a 1% agarose gel as described above.
as §3

[12] = 3 min >450 nm light, 72 hours, read-out: Light IC50 A549
[13] = 3 min >450 nm light, 72 hours, read-out: Light IC50 A549 spheroid
[14] = dark, read-out: Dark IC50 A549 spheroid
[15] = 3 min >450 nm light, 72 hours, read-out: Light IC50 HL60

Cc1ccc2c3nccnc3c3ccc(C)nc3c2n1.F[P-](F)(F)(F)(F)F.F[P-](F)(F)(F)(F)F.[Ru+2].c1ccc(-c2ccccn2)nc1.c1ccc(-c2ccccn2)nc1 [Compound 5, Ru(bpy)2dmdpq]
IC50 [1, 12]: 1.2 µM
IC50 ([1]; dark, read-out: Dark IC50 A549): 250 µM
Phototoxicity Index, PI A549 [1]: 208
IC50 [2, 13]: 64 µM and 64.6 µM
IC50 [2, 14]: > 300 µM
MCR Index [2]: 54
IC50 ([3]; read-out: Dark IC50): 250 µM
IC50 ([3]; read-out: Light IC50): 0.6 µM
Phototoxicity Index [3]: 400
activity light versus dark [4]: light-triggered toxicity
IC50 values after irradiation ([4]; after irradiation): single μM IC50 values
IC50 ([4]; dark): > 100 µM
type of DNA damage upon visible light [5]: combination of these two mechanisms
interaction with GSH [6]: did not interact with GSH
IC50 [7, 15]: 2.6 µM
IC50 ([7]; dark, read-out: Dark IC50 HL60): 108 µM
Phototoxicity Index, PI HL60 [7]: 216

Cc1ccc2ccc3ccc(C)nc3c2n1.Cc1ccc2ccc3ccc(C)nc3c2n1.[Ru+2].c1cnc2c(c1)ccc1cccnc12 [Ru(dmphen)2phen]
IC50 ([3]; read-out: Dark IC50): 35 µM
IC50 ([3]; read-out: Light IC50): 0.14 µM
Phototoxicity Index [3]: 250

Cc1ccc2ccc3ccc(C)nc3c2n1.Cc1ccc2ccc3ccc(C)nc3c2n1.[Ru+2].c1cnc2c(c1)c1nccnc1c1cccnc12 [Ru(dmphen)2dpq]
IC50 ([3]; read-out: Dark IC50): 250 µM
IC50 ([3]; read-out: Light IC50): 0.22 µM
Phototoxicity Index [3]: 1,130

COc1cccc2c1C(=O)c1c(O)c3c(c(O)c1C2=O)C[C@@](O)(C(=O)CO)C[C@@H]3O[C@H]1C[C@H](N)[C@H](O)[C@H](C)O1 [doxorubicin, reference compound]
55 kDa PARP fragment (marker for necrosis) [8]: also produced this cleavage product

Cc1ccc2ccc3ccc(C)nc3c2n1.Cc1ccc2ccc3ccc(C)nc3c2n1.[Ru+2].c1ccc(-c2ccnc3c2ccc2c(-c4ccccc4)ccnc23)cc1 [Ru(dmphen)2bathophen]
IC50 ([3]; read-out: Dark IC50): 4.5 µM
IC50 ([3]; read-out: Light IC50): 1.7 µM
Phototoxicity Index [3]: 2.5

Cc1ccc2ccc3ccc(C)nc3c2n1.[Ru+2].c1ccc(-c2ccccn2)nc1.c1ccc(-c2ccccn2)nc1 [Ru(bpy)2dmphen]
IC50 ([3]; read-out: Dark IC50): 8 µM
IC50 ([3]; read-out: Light IC50): 0.4 µM
Phototoxicity Index [3]: 20

Cc1ccc2ccc3ccc(C)nc3c2n1.Cc1ccc2ccc3ccc(C)nc3c2n1.[Ru+2].c1ccc2nc3c4cccnc4c4ncccc4c3nc2c1 [Ru(dmphen)2dppz]
IC50 ([3]; read-out: Dark IC50): 150 µM
IC50 ([3]; read-out: Light IC50): 0.5 µM
Phototoxicity Index [3]: 300

Cc1cc(-c2ccccc2)c2ccc3c(-c4ccccc4)cc(C)nc3c2n1.[Ru+2].c1ccc(-c2ccccn2)nc1.c1ccc(-c2ccccn2)nc1 [Ru(bpy)2bathocuprione]
IC50 ([3]; read-out: Dark IC50): 27 µM
IC50 ([3]; read-out: Light IC50): 3.3 µM
Phototoxicity Index [3]: 8.18

Cl.NCC(=O)CCC(=O)O [ALA, 5-aminolevulinic acid hydrochloride, reference compound]
IC50 ([1]; Homo sapiens, A549, 3 min >450 nm light, 72 hours, read-out: Light IC50 A549): 21 µM
IC50 ([1]; Homo sapiens, A549, read-out: Dark IC50 A549): 87.8 µM
Phototoxicity Index, PI A549 [1]: 4.2
Light IC50 A549 spheroid ([2]; 3 min >450 nm light, 72 hours): had no effect
IC50 ([2]; Homo sapiens, A549, 3 min >450 nm light, 72 hours, read-out: Light IC50 A549 spheroid): > 300 µM
IC50 ([2]; Homo sapiens, A549, read-out: Dark IC50 A549 spheroid): > 300 µM
MCR Index [2]: >14
IC50 ([7]; Homo sapiens, HL-60, 3 min >450 nm light, 72 hours, read-out: Light IC50 HL60): 16.2 µM
IC50 ([7]; Homo sapiens, HL-60, read-out: Dark IC50 HL60): > 300 µM
Phototoxicity Index, PI HL60 [7]: >18

[Ru+2].c1ccc(-c2ccccn2)nc1.c1ccc(-c2ccccn2)nc1.c1cnc2c(c1)ccc1cccnc12 [Compound 3, Ru(bpy)2phen]
IC50 [1, 12]: 40 µM
IC50 ([1]; dark, read-out: Dark IC50 A549): 250 µM
Phototoxicity Index, PI A549 [1]: 6.3
IC50 [2, 13]: > 300 µM
IC50 [2, 14]: > 300 µM
MCR Index [2]: >7.5
type of DNA damage upon visible light [5]: DNA photocleavage
IC50 [7, 15]: 81 µM
IC50 ([7]; dark, read-out: Dark IC50 HL60): 240 µM
Phototoxicity Index, PI HL60 [7]: 3

Cc1ccc2ccc3ccc(C)nc3c2n1.Cc1ccc2ccc3ccc(C)nc3c2n1.[Ru+2].c1ccc(-c2ccccn2)nc1 [Ru(dmphen)2bpy]
IC50 ([3]; read-out: Dark IC50): 150 µM
IC50 ([3]; read-out: Light IC50): 1.2 µM
Phototoxicity Index [3]: 125

N.N.[Cl][Pt][Cl] [Cisplatin, reference compound]
IC50 ([9]; HL-60, dark, read-out: IC50 Dark): 3.1 µM
IC50 ([9]; HL-60, light condition not given, read-out: IC50): 3.1 µM
IC50 ([9]; read-out: IC50 Blue (3 min), HL-60, 12 hours incubation, blue (>400 nm) light 3 min): 3.1 µM
genomic DNA laddering [10]: initiated DNA fragmentation resulting in a laddering pattern
IC50 [1, 12]: 3.4 µM
IC50 ([1]; dark, read-out: Dark IC50 A549): 3.5 µM
55 kDa PARP fragment (marker for necrosis) [8]: also produced this cleavage product
IC50 [2, 14]: 42 µM
IC50 ([3]; read-out: Dark IC50): 3.1 µM
IC50 ([3]; read-out: Light IC50): 3.1 µM
activity light versus dark [4]: same activity under light and dark conditions
plasmid DNA crosslinking in presence of increasing GSH [11]: reduced crosslinking efficacy
IC50 [7, 15]: 3.1 µM
IC50 ([7]; dark, read-out: Dark IC50 HL60): 3.1 µM
